The subject of one data set is rats and rabbits. The data set is described as follows: Prolonged (three-month) toxicity investigations on rats and rabbits. Format: in vivo. The method, then:
Prolonged investigations were carried out on rats and rabbits during the whole three-month-exposition period of time, introducing dosages corresponding to 1/150, 1/100 and 1/50 of the LD50 -value. This last dosage was a dosage which was maximally tolerated during this period of time.

Data set [1] is described as follows: Maximum tolerance dosage (MTD), rat. The settings on record: in vivo. The method, then:
(§1) Moreover, the maximum tolerance dosage (MTD) for mice and rats was determined (in mg/kg), as follows: […]

Data set [2] has as its system isolated small intestine of rat. The data set is described as follows: Spasmolytic activity, isolated small intestine of rat. The settings on record: concentration of 10^-5.
Data set [3] is described as follows: Acute toxicity, LD50, mouse. The settings on record: in vivo, observations over 72 hours. As to the method: (§2) The biological activity analysis was supported by detailed pharmacologic examinations. After observations made over 72 hours, it was determined that the LD50 -value for the preparation C-846 for mice and rats (in mg/kg), was as follows: […]
For another data set, the system named is central nervous system. Format: in vivo, mice.
The nature of a further data set: Local irritating action. Format: in vivo.
A further data set deals with rabbits and cats. The data set is described as follows: Arterial blood pressure, respiratory function, electrocardiogram and lethal dosage in rabbits and cats. Format: in vivo.
Data set [4] concerns small intestine; muscular coat of the urinary bladder. The data set is described as follows: Spasmolytic activity in vivo, small intestine and urinary bladder of rabbit and cat. The settings on record: intravenous, dosages of more than 5 mg/kg.
A short description of data set [5]: Maximum tolerance dosage (MTD), mouse. The settings on record: in vivo. As to the method:
as §1

Data set [6] can be described thus: Acute toxicity, LD50, rat. The settings on record: in vivo, observations over 72 hours. The method, then:
as §2

Data set [7] concerns isolated small intestine of guinea-pig. Put plainly: Spasmolytic activity, isolated small intestine of guinea-pig. The settings on record: concentration 5 × 10^-6.
The next data set concerns rats. Put plainly: Reproduction and offspring development in rats. The format is in vivo.
In data set [8] the test system is Crocker mice sarcoma (Sa-180). The data set is described as follows: Growth inhibition of the Crocker mice sarcoma (Sa-180). Format: in vivo. The settings on record: dosage of 0.2 mg/kg, intraperitoneally, dihydrochloride. The method, then:
The growth inhibition of the Crocker mice sarcoma (Sa-180).
For this investigation, mice of about three months in age and a weight of about 25 g were used. These animals were inoculated with a section of the neoplasm (Sa-180) and were divided into groups: the first of control - 10 mice; and two to four groups of "under treatment" ones (seven mice each).
The compounds investigated were administered intraperitoneally in appropriate doses, after previous determination of the maximum tolerance dosage.
A criterion of the evaluation the anti-neoplastic activity of the compounds tested was accepted wherein the percent difference between mean weights of the nodules (tumours) of control mice and of those which received the preparations, taking into account the toxic effects.

Setting [9] is: large dosages, more than 8 mg/kg.
Where [10] appears, read: rabbits and cats, intraperitoneal, dosages up to 10 mg/kg.

Values joined by “and” are separate entries in the source; they are usually repeats but may differ in a detail not shown here. Identical values can stand only once.

The term MTD denotes the largest dose that counted as tolerated. By LD50 is commonly meant the dose at which mortality reaches 50%.

On to `CC(C)NCCCNc1c2ccccc2nc2cccc([N+](=O)[O-])c12.Cl.Cl` [Example C-846, 1-nitro-9-isopropylaminopropylaminoacridine dihydrochloride], for which the blood coagulation time entry with rats and rabbits (in the third month) is on record as “a certain prolongation was noted”. Moreover, in the data set on rats and rabbits (in vivo), the “histology, germinal epithelium / testicles” value is recorded as “some degenerative lesions appeared in a range of the germinal epithelium, in the range of testicles”; the “histology, intestinal epithelium and glandular texture” value was “a desquamation (desfoliation) of the intestinal epithelium and an atrophy of the glandular texture”; the “histology, lymphatic system” value is on record as “a decrease in the amount of the reproductive centers was noted, as well as a decrease in the amount of the small lymphocytes”; the “histology, other internal organs” value is listed as “did not show any other microscopic changes”. The “histology, spermatogenesis” value with rats and rabbits (in vivo) is listed as “some disturbances in spermatogenesis, a decrease in the amount of sperm cells”. For the same compound, the “activity of the acid phosphatase” value in the data set with rats and rabbits (only after the highest dosages, prolonged time of exposition) is recorded as “increase in activity of the acid phosphatase was observed”. For the same compound, in the data set with rats and rabbits (rats and rabbits, three months), the “hepatic functional tests (AlAt, AspAt, acid and alkaline phosphatases, thymol turbidity test)” value was “did not show an occurrence of any pathologic lesions”; the “influence on the peripheral blood or medular hematopoietic system” value is reported as “could not be proved, that the preparation had influence”; the “renal tests (creatinine clearance, glomerular filterability)” value is reported as “did not show any deviation from the norm”. Moreover, the “dosage maximally tolerated during three months” value with rats and rabbits (rats and rabbits, three-month exposition) is 1/50. Moreover, the maximal tolerated dose (MTD) in data set [1] (iv) worked out at 0.63 mg/kg. The compound also came in with an MTD in data set [1] (po) of 75 mg/kg. Further, in [2], the “muscular tension and spontaneous intestine peristalsis (spasmolytic activity)” value is “a decrease was noted in the muscular tension and an atrophy of spontaneous intestine peristalsis”. In addition, in [3] (iv), the LD50 at 72 h is 2.2 ± 0.1 mg/kg. The LD50 at 72 h in [3] (po) is 126 ± 24.7 mg/kg. In the data set on central nervous system (mice, dosages up to 1/10 LD50), the “influence on spontaneous and forced motor activity” value is “did not influence in such dosages in essential manner”; the “influence on the action of hypnotic agents (luminal, chloral hydrate) and of convulsant agents (Cardiazol, strychnine)” value was “did not influence”. Further, the “activity on the central nervous system” value in the data set on central nervous system (mouse, in vivo) is “did not demonstrate any evident and oriented activity”. Moreover, the local irritating action entry in the data set “Local irritating action” (concentrations of from 0.05 to 1.0%) is reported as “exerted a local irritating action”. Besides, in the data set “Local irritating action” (phosphate buffer solution at pH 7 as solvent), the “local changes caused by the intravenous injection” value is “could be eliminated”. Further, in the data set on rabbits and cats (intravenous injection, 2 mg/kg), the “effect on blood pressure” value is “insignificant and transient hypotony”; the effect on respiration entry is “instinctive acceleration of deepened respiration”. In the data set on rabbits and cats (setting [9]), the PQ segment result is “prolongation of the PQ segment”; the QRS-Complex result was “dilation of the QRS-Complex”; the changes in electrocardiograms result is “transient changes in electrocardiograms were noted, due to the disturbances of the atrio-ventricular and intra-ventricular conductivity”. Also, the “effects of the lethal dosages” value with rabbits and cats (rabbits and cats, about 15 mg/kg, i.v.) was “permanent hypotony and respiration disturbances or even apnoea”. Besides, the lethal dosages in the data set with rabbits and cats (rabbits and cats, i.v.) is ~15 mg/kg. In addition, in the data set on rabbits and cats (setting [10]), the “effect on the arterial blood pressure” value is “did not have any effect” and the “effect on the respiratory function” value is given as “did not have any effect”. In [4], the “spasmolytic activity regarding the small intestine and the muscular coat of the urinary bladder” value was “such an activity”. The compound also displayed an MTD in [5] (iv) of 1.85 mg/kg. This compound registered a maximum tolerated dose (MTD) in data set [5] (po) of 27.2 mg/kg. In data set [6] (iv), this compound showed an LD50 at 72 h of 0.95 ± 0.1 mg/kg. The compound also had a median lethal dose (LD50) at 72 h in data set [6] (po) of 127 ± 17.8 mg/kg. In addition, the “muscular tension and spontaneous intestine peristalsis (spasmolytic activity)” value in [7] is “a decrease was noted in the muscular tension and an atrophy of spontaneous intestine peristalsis”. In the data set on rats, the “amount of infant animals in the brood” value is “decreased”, the “capacity to conceive or induce conception / ability of females to become pregnant” value is listed as “did not inhibit”, the macroscopic malformations entry is given as “no macroscopic malformations were observed” and the “ontogenetic development of infant animals” value is on record as “retarded”.

On to `CCNCCCNc1c2ccccc2nc2cccc([N+](=O)[O-])c12.Cl.Cl` [Example C-845, 1-nitro-9-ethylaminopropylaminoacridine dihydrochloride], for which, in [8], the “inhibition values of Crocker's sarcoma (Sa-180)” value is 48% and 49% and 57%.
